The test system of data set [1] is platelets. The experiment in a line: Platelet nitric oxide/peroxynitrite release ratio after IP3 stimulation. The conditions noted are these: IP3 1.0 μM. The format is cell-based. The text has this: Values are reported as mean±S.D. (N=5). *p<0.05 and **p<0.001 versus control; †p<0.01 and ‡p<0.001 versus aspirin alone (ANOVA Student-Newman-Keuls multiple comparisons test; overall ANOVA: p<0.0001; F=129.98). Abbreviations: Astax=Astaxanthin. […] Values are reported as mean±S.D. (N=5). *p<0.05 and **p<0.001 versus control; †p<0.001 versus simvastatin alone (ANOVA Student-Newman-Keuls multiple comparisons test; overall ANOVA: p<0.0001; F=84.477). Abbreviations: Astax=Astaxanthin; Simva=Simvastatin. […] Values are reported as mean±S.D. (N=5). *p<0.05 and †p<0.001 versus control; §p<0.001 versus astaxanthin treatment (ANOVA Student-Newman-Keuls multiple comparisons test; overall ANOVA: p<0.0001; F=40.020).

Data set [2] concerns platelets. Description: Platelet-derived peroxynitrite release after IP3 stimulation. The format is cell-based. The conditions noted are these: IP3 1.0 μM; for effect on platelet ONOO— release: compound alone at 1.0 μM, FIG. 12. The text has this: Values are reported as mean±S.D. (N=5). *p<0.001 and †p<0.05 versus control; §p<0.001 versus aspirin treatment (ANOVA Student-Newman-Keuls multiple comparisons test; overall ANOVA: p<0.0001; F=52.475). […] Values are reported as mean±S.D. (N=5). *p<0.001 versus control and †p<0.001 versus aspirin alone (ANOVA Student-Newman-Keuls multiple comparisons test; overall ANOVA: p<0.0001; F=21.905). Abbreviations: Astax=Astaxanthin. […] Values are reported as mean±S.D. (N=5). *p<0.05 and **p<0.001 versus control; †p<0.05 and ‡p<0.001 versus simvastatin alone (ANOVA Student-Newman-Keuls multiple comparisons test; overall ANOVA: p<0.0001; F=13.716). Abbreviations: Astax=Astaxanthin; Simva=Simvastatin.

Data set [3] has as its system vascular platelets. The experiment in a line: Platelet-derived nitric oxide (NO) release after IP3 stimulation, NO nanosensor. The format is cell-based, Wistar-Kyoto (WKY) rats. As to the method:
Wistar-Kyoto (WKY) rats were anaesthetized and blood was collected directly from the heart using a 10 mL syringe that contained 3.8% sodium citrate (9:1, v v^−1). […] The platelet rich plasma (PRP) was then removed by aspiration. […] The number of platelets was counted and adjusted to 3.5×10^8 per mL with Tyrode-HEPES buffer. The platelets were incubated in an aggregometer with a NO nanosensor (working electrode) placed in the platelet suspension. […] All measurements of NO release were conducted in Hank's balanced salt solution (HBSS) at 37° C. The sensor operated with a three-electrode system: nanosensor (working electrode), saturated calomel electrode (reference electrode), and platinum wire (counter electrode, 0.5 mm diameter). The three electrodes were connected to a potentiostat/galvanostat PAR273. The baseline was stabilized after ˜20 s. With a nanoinjector, the test compounds were injected onto the surface of the cells following solubilization in buffer. In experiments with multiple compounds, the compounds were injected simultaneously. […] Data were acquired with the use of custom software. Amperograms (current vs. time curves) were recorded with a Guniry FAS1 Femtostat (Warminster, Pa.). The nanosensor for NO was calibrated using saturated solution (concentration 1.82 mM verified with the coulometric method). […] The data were presented as mean±S.D. for each of the triplicate measurements. The data (calculation and plotting) were transferred to Microcal Origin Software (OriginLab Corp., Northampton, Mass.). […] The NO concentration was calculated using current responses obtained from standard NO solution (prepared from […] stock solution, saturated aqueous NO solution).

In data set [4] the test system is human umbilical vein endothelial cells (HUVEC). Description: CaI-stimulated NO/OONO- release ratio from HUVEC. The format is cell-based. The conditions noted are these: 3S,3′S-AST 5.0 μM, clopidogrel 1.0 μM, alone or in combination; FIG. 7. How it is done: (§1) Human umbilical vein endothelial cells (HUVECs) were isolated into primary cultures from white female donors by Clonetics (San Diego, Calif.), essentially as described (Mason et al. 2005). All donors were reported to be healthy and none had pregnancy or prenatal complications. All measurements were recorded in vitro using a sensitive porphyrinic probe, also as previously described. HUVEC cells were grown in Ham's F12K medium with 2 mM L-glutamine adjusted to contain 1.5 g/L sodium bicarbonate and supplemented with 0.1 mg/mL heparin and 0.03-0.05 mg/mL endothelial cell growth supplement (ECGS) plus 10% fetal bovine serum. The HUVEC cells were kept in an atmosphere of elevated CO2 concentration (5%).

The test system is the same in data set [5]. The experiment in a line: Calcium ionophore (CaI)-stimulated total nitric oxide release from HUVEC. The data set is classed as cell-based. The conditions noted are these: 3S,3′S-AST 5.0 μM, clopidogrel 1.0 μM, alone or in combination; FIG. 5. How it is done: as §1
All measurements of NO release were conducted in Hank's balanced salt solution (HBSS) at 37° C. The sensor operated with a three-electrode system: nanosensor (working electrode), saturated calomel electrode (reference electrode), and platinum wire (counter electrode, 0.5 mm diameter). The three electrodes were connected to a potentiostat/galvanostat PAR273. […] The current (amps) proportional to the NO concentration was measured with the sensor, which operated in amperometric mode at a constant potential of 0.63 V. Data were acquired with the use of custom software. Amperograms (current vs. time curves) were recorded with a Guniry FAS1 Femtostat (Warminster, Pa.).

Details of data set [6]: species or system rats. To be noted: in vivo, po, 500 mg/kg. How it is done: In one experiment, astaxanthin; all-trans 3S,3'S-astaxanthin diester disuccinate disodium salt (hereinafter “ADS”); and all-trans 3S,3'S-astaxanthin diester […] tetrahydrochloride salt (hereinafter “ADL”) were administered orally to separate rats as a lipid suspension. A single dose that included 500 mg/kg of the carotenoid/carotenoid derivative was administered to each rat. (See FIG. 20, PK Study #CXPK07201). Plasma from each of the rats was collected 4 hours after ingestion and 8 hours after ingestion and all samples were analyzed by high performance liquid chromatography (“HPLC”). HPLC analysis was used to detect the presence of free underivatized carotenoid (e.g., in this example, astaxanthin) in the plasma. HPLC chromatograms were collected for each plasma sample taken.

The test system of data set [7] is human umbilical vein endothelial cells (HUVEC). Description: Calcium ionophore (CaI)-stimulated total peroxynitrite release from HUVEC. The data set is classed as cell-based. The conditions noted are these: 3S,3′S-AST 5.0 μM, clopidogrel 1.0 μM, alone or in combination; FIG. 6. As to the method: as §1
Data set [8] can be described thus: Monkey PK oral and intravenous (CXPK07502). The data set is classed as in vivo. The conditions noted are these: monkeys; oral 10, 300, 500 mg/kg and intravenous 5 mg/kg.
Data set [9] can be described thus: Dog PK of astaxanthin derivatives (CXPK07402, 07404, 07405, 07406). The conditions noted are these: dog, in vivo, po, 20 mg/kg. As to the method: In another experiment, ADL was administered to non-naïve beagle dogs orally (as an aqueous suspension containing 0.5% carboxymethylcellulose) and intravenously as an aqueous solution. Oral doses that included 10 mg/kg of the carotenoid derivative, 100 mg/kg of the carotenoid derivative, and 500 mg/kg of the carotenoid derivative were administered to each dog. The intravenous dosage was 5 mg/kg. (See FIG. 20, PK Study #CXPK07402). For each carotenoid derivative given to the dogs in this example, the amount of all astaxanthin isomers, the amount of trans astaxanthin isomers, and the amount of cis astaxanthin isomers in the plasma was determined at predefined time intervals for 3 days (72 hours).
In another experiment, ADL was administered to naïve beagle dogs orally (as an aqueous suspension containing 0.5% carboxymethylcellulose) twice a day for six days. Each oral dose included 75 mg/kg of the carotenoid derivative. (See FIG. 20, PK Study #CXPK07404). For each carotenoid derivative given to the dogs in this example, the amount of all astaxanthin isomers, the amount of trans astaxanthin isomers, and the amount of cis astaxanthin isomers in the plasma was determined at predefined time intervals for 6 days.
In another experiment, all-trans 3S,3′ S-astaxanthin diester di-beta-alanine dihydrochloride salt (hereinafter “ADA”); ADG; ADL; ADSa; and ADS were administered orally to separate non-naïve dogs as a aqueous suspension containing 0.5% carboxymethylcellulose. A single dose that included 20 mg/kg of the carotenoid derivative was administered to each dog. (See FIG. 20, PK Study #CXPK07405). For each carotenoid derivative given to the dogs in this example, the amount of all astaxanthin isomers was determined at predefined time intervals for 3 days (72 hours).
In another experiment, ADG or ADSa was administered to non-naïve beagle dogs orally (as an aqueous suspension containing 0.5% carboxymethylcellulose). Oral doses included either 50 mg/kg of the carotenoid derivative or 100 mg/kg of the carotenoid derivative. (See FIG. 20, PK Study #CXPK07406). For each carotenoid derivative given to the dogs in this example, the amount of all astaxanthin isomers, the amount of trans astaxanthin isomers, and the amount of cis astaxanthin isomers in the plasma was determined at predefined time intervals for 3 days (72 hours).

For data set [10] the following is noted: rat, in vivo. As to the method: In a another experiment, all-trans 3S,3′S-astaxanthin diester diglycinate dihydrochloride salt (hereinafter “ADG”); all-trans 3S,3′S-astaxanthin diester disarcosinate dihydrochloride salt (hereinafter “ADSa”); and ADL were administered orally to separate rats as a aqueous suspension containing 0.5% carboxymethylcellulose. A single dose that included 40 mg/kg of the carotenoid derivative was administered to each rat. (See FIG. 20, PK Study #CXPK07202). For each carotenoid derivative given to the rats in this example, the amount of all astaxanthin isomers, the amount of trans astaxanthin isomers, and the amount of cis astaxanthin isomers in the plasma was determined at predefined time intervals for 3 days (72 hours).
In another experiment, ADG; ADSa; and ADL were administered to separate rats intravenously as an aqueous solution. A single dose that included 5 mg/kg of the carotenoid derivative was administered to each rat. (See FIG. 20, PK Study #CXPK07202). For each carotenoid derivative given to the rats in this example, the amount of all astaxanthin isomers, the amount of trans astaxanthin isomers, and the amount of cis astaxanthin isomers in the plasma was determined at predefined time intervals for 3 days (72 hours).

Setting [11] is: astaxanthin combined with aspirin 1.0 μM, IP3 1.0 μM, FIG. 14.

These results are taken from patent publication US8063101B2, “Carotenoid analogs and derivatives for the prevention of platelet aggregation” (Cardax Pharmaceuticals, Inc., priority 2007, dated 2011).

Read-outs that look alike come from different tables or passages of the source.

On to `CC(=O)Oc1ccccc1C(=O)O` [aspirin, reference compound], for which the “effect on NO/ONOO— ratio” value in data set [1] (aspirin separately, 1.0 μM) is “failed to produce a favorable effect”. In addition, the “effect on platelet ONOO— release” value in data set [2] was “increased”.

With `CC1=C(/C=C/C(C)=C/C=C/C(C)=C/C=C/C=C(C)/C=C/C=C(C)/C=C/C2=C(C)C(=O)[C@@H](O)CC2(C)C)C(C)(C)C[C@H](O)C1=O` [homochiral astaxanthin, astaxanthin], the “sustained production of NO with time (amperogram)” value in data set [3] (IP3-stimulated, 3S,3′S-AST 5.0 μM alone or with clopidogrel 1.0 μM, FIG. 4) came out at 13 s. The “mean increase in capacity to generate bioavailable NO vs. controls” value in data set [3] (IP3 stimulation, homochiral astaxanthin 5.0 μM alone) was “two-fold”. Moreover, the “increase in platelet NO generation/release vs. mean control levels” value in data set [3] (IP3 stimulation, homochiral astaxanthin 5 μM, clopidogrel 1 μM, each as monotherapy) is given as ~100%. Also, in [3] (IP3 stimulation, homochiral astaxanthin 5.0 μM, clopidogrel 1.0 μM, controls 6.6±0.3, mean±S.D.), the “total NO release from vascular platelets” value is 12.9±0.3 molecules NO×10^6/platelet. For the same molecule, in data set [3] (setting [11]), the “increase in NO release over untreated samples” value is listed as 3 fold and the “potentiation of the NO release observed by aspirin alone” value was 80%. Further, in data set [3] (increasing astaxanthin with simvastatin 1.0 μM, IP3 1.0 μM), the “effect of astaxanthin on simvastatin's platelet-derived NO release” value was “enhanced the effect of simvastatin on platelet-derived NO release in a dose-dependent fashion”. Further, the “NOS coupling efficiency (ratio of NO/ONOO—), increase over control levels as well as aspirin alone” value in data set [1] (astaxanthin combined with aspirin 1.0 μM) was “approximately three-fold”. The “effect on CaI-stimulated NO/OONO− release ratio from HUVEC” value in data set [4] is “Statistically significant increases”. Moreover, the “effect on CaI-stimulated total nitric oxide release from HUVEC” value in data set [5] was “Statistically significant increases”. Also, the “free astaxanthin in rat plasma” value in data set [6] is “no significant amount”. In addition, the “effect on platelet ONOO— release” value in data set [2] is given as “decreased”. Also, the “effect of astaxanthin on aspirin-induced ONOO— release” value in data set [2] (increasing astaxanthin with aspirin 1.0 μM, FIG. 13) is given as “reverse the effect of aspirin on ONOO— release in a dose-dependent manner”. In addition, the “effect on CaI-stimulated total peroxynitrite (OONO−) release from HUVEC” value in data set [7] is listed as “Statistically significant decreases”.

For `CNCC(=O)O[C@H]1CC(C)(C)C(/C=C/C(C)=C/C=C/C(C)=C/C=C/C=C(C)/C=C/C=C(C)/C=C/C2=C(C)C(=O)[C@@H](OC(=O)CNC)CC2(C)C)=C(C)C1=O.Cl.Cl` (relative stereo) [ADSa, all-trans 3S,3′S-astaxanthin diester disarcosinate dihydrochloride salt], the “absorption and metabolism to astaxanthin in plasma” value was “absorbed by the monkeys and metabolized” in [8]; “absorbed by the dogs and metabolized” in data set [9]; “absorbed by the rats and metabolized” in [10] (iv, 5 mg/kg); “absorbed by the rats and metabolized” in data set [10] (po, 40 mg/kg).
